These are literature values, as cited in patent US6576233B2 (priority 1996, dated 2003).

Structures are written as SMILES.

For series [1] the following is noted: Ferris et al. 1989.
Series [2] concerns people. To be noted: daily supplement, more than 1,300 people.

Regarding `[Se]` [Selenium, selenium], the “dosage reported as safe” value in series [1] is given as 600 micrograms per day. In addition, in series [2], the “reduction of overall cancer risk” value is given as around 40%.
